According to article PMC5564600 (Oncotarget, 2017):
Where two headings read alike, the source gives them in different places.

Legend:
Assay in all cases: biochemical
Assay type in all cases: binding
[1] = molecular target: T1, panel of 442 kinases (Homo sapiens, UniProt Q13546); conditions: kinase RIPK1; for remaining activity at 1 µM: read-out: RIPK1 (% of control at 1 µM)
T1 construct: purchased Ambit Biosciences (scanMAXX KINOMEscan)
T1 sequence (Q13546 1-671): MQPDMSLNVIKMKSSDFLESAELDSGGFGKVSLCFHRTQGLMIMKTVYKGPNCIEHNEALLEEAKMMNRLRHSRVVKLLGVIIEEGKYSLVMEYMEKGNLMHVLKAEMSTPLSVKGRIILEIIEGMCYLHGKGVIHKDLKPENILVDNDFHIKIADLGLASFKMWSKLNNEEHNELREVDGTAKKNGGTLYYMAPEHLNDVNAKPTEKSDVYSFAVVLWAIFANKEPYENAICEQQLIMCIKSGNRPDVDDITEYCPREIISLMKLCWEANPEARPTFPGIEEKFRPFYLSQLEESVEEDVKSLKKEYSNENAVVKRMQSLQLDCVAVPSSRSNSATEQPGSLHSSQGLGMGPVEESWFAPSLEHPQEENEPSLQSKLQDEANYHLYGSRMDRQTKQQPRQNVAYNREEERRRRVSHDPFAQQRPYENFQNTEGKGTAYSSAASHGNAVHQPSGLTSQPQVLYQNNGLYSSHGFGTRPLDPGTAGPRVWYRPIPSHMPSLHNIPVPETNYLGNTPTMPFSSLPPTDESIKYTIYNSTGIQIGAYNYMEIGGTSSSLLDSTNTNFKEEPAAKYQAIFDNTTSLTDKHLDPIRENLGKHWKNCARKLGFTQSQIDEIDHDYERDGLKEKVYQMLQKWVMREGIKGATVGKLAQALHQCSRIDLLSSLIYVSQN

[2] = molecular target: T2, panel of 442 kinases (Homo sapiens, UniProt O60331); conditions: kinase PIP5K1C; for remaining activity at 1 µM: read-out: % of control at 1 µM
T2 construct: purchased Ambit Biosciences (scanMAXX KINOMEscan)
T2 sequence (O60331 whole entry): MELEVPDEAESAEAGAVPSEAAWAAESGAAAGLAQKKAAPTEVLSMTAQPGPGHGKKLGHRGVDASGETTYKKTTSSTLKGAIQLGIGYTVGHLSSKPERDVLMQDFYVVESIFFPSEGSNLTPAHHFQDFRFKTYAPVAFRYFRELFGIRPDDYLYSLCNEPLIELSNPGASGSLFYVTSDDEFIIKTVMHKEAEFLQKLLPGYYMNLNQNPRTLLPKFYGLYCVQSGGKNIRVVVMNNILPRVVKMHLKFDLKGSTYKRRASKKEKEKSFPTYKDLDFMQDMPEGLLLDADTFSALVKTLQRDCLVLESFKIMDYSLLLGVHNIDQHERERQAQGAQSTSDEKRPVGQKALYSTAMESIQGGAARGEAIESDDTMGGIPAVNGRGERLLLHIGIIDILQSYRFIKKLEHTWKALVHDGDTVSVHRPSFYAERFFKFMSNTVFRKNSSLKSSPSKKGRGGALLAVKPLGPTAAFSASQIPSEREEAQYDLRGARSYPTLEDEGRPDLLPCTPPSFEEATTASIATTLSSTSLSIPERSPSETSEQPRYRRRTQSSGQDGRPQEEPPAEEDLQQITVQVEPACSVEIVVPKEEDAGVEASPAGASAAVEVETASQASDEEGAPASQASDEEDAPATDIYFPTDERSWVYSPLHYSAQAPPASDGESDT

[3] = molecular target: T3, panel of 442 kinases (Homo sapiens, UniProt Q8IVW4); conditions: CDKL3; for remaining activity at 1 µM: read-out: % of control at 1 µM
T3 construct: purchased Ambit Biosciences (scanMAXX KINOMEscan)
T3 sequence (Q8IVW4 whole entry): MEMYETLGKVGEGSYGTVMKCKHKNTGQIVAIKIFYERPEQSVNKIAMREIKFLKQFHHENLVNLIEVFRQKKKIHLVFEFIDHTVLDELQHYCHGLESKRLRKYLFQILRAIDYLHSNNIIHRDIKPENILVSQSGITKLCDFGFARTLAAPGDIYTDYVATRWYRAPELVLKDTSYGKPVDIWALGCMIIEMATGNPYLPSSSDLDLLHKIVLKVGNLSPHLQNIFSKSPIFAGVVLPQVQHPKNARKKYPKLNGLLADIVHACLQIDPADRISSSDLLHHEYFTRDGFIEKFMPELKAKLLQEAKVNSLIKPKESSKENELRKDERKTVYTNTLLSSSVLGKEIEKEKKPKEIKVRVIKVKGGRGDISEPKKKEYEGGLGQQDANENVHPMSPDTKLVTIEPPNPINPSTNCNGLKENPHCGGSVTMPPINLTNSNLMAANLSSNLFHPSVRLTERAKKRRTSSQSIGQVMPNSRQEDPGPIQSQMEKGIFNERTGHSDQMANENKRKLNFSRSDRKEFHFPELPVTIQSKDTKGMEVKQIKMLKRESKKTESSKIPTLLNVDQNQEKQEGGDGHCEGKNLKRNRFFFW

[4] = molecular target: T4, panel of 442 kinases (Homo sapiens, UniProt Q08345); conditions: DDR1; for remaining activity at 1 µM: read-out: % of control at 1 µM
T4 construct: purchased Ambit Biosciences (scanMAXX KINOMEscan)
T4 sequence (Q08345 19-913): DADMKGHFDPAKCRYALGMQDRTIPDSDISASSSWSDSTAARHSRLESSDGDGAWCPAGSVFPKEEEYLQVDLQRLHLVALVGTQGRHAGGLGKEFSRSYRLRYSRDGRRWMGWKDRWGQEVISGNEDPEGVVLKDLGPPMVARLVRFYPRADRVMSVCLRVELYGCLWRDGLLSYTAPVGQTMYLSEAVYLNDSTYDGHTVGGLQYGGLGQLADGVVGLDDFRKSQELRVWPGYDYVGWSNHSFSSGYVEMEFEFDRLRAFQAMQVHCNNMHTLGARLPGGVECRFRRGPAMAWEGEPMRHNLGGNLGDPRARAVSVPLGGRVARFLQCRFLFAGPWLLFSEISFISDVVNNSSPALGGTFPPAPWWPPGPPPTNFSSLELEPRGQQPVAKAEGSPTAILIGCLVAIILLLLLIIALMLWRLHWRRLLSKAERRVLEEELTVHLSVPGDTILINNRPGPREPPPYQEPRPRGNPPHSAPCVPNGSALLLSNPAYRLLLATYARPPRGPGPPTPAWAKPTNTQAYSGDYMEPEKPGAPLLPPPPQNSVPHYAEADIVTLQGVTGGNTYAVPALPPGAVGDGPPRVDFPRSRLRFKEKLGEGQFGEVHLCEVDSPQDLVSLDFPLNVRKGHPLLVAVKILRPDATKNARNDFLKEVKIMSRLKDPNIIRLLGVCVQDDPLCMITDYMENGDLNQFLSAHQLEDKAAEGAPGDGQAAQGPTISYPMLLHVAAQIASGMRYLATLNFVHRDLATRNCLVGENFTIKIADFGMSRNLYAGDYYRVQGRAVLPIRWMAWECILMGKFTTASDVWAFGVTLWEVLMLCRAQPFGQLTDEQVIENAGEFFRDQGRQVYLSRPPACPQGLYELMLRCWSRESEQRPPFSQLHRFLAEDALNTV

[5] = molecular target: T5, panel of 442 kinases (Homo sapiens, UniProt Q8N4C8); conditions: kinase MINK; for remaining activity at 1 µM: read-out: % of control at 1 µM
T5 construct: purchased Ambit Biosciences (scanMAXX KINOMEscan)
T5 sequence (Q8N4C8 whole entry): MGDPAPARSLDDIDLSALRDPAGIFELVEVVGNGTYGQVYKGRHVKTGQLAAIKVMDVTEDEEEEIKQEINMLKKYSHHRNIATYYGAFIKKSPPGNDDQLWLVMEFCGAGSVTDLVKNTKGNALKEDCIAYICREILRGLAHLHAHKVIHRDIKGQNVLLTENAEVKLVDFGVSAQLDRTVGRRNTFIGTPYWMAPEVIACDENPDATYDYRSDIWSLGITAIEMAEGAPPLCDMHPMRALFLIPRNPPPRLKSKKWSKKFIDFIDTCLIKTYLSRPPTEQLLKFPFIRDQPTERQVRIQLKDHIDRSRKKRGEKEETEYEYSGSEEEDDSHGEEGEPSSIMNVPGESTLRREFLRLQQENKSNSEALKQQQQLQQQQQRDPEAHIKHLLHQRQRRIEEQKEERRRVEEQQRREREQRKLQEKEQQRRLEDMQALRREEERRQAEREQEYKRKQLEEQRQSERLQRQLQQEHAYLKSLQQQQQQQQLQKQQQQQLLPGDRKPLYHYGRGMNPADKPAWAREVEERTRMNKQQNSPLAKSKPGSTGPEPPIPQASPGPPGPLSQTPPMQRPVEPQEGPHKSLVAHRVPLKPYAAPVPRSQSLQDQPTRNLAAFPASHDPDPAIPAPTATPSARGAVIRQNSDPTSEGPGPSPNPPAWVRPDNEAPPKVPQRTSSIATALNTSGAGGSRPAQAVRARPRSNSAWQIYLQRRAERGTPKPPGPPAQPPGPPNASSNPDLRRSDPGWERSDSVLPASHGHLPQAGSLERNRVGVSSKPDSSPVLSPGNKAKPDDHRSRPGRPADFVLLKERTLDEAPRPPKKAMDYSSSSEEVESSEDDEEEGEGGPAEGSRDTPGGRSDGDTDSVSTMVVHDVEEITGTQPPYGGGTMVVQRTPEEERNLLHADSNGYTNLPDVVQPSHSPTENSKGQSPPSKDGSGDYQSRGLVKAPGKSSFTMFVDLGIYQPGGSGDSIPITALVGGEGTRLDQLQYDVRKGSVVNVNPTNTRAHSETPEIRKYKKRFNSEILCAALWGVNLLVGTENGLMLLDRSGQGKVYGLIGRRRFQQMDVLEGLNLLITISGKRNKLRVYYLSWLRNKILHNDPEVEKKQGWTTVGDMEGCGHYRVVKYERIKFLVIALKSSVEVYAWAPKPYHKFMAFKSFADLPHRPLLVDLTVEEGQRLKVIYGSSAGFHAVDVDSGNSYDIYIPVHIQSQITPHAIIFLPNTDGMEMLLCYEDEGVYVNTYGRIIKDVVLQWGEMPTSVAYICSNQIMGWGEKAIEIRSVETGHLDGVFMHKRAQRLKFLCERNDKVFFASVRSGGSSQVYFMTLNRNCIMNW

[6] = molecular target: T6, panel of 442 kinases (Homo sapiens, UniProt Q8NG66); conditions: kinase NEK11; for remaining activity at 1 µM: read-out: % of control at 1 µM
T6 construct: purchased Ambit Biosciences (scanMAXX KINOMEscan)
T6 sequence (Q8NG66 1-645): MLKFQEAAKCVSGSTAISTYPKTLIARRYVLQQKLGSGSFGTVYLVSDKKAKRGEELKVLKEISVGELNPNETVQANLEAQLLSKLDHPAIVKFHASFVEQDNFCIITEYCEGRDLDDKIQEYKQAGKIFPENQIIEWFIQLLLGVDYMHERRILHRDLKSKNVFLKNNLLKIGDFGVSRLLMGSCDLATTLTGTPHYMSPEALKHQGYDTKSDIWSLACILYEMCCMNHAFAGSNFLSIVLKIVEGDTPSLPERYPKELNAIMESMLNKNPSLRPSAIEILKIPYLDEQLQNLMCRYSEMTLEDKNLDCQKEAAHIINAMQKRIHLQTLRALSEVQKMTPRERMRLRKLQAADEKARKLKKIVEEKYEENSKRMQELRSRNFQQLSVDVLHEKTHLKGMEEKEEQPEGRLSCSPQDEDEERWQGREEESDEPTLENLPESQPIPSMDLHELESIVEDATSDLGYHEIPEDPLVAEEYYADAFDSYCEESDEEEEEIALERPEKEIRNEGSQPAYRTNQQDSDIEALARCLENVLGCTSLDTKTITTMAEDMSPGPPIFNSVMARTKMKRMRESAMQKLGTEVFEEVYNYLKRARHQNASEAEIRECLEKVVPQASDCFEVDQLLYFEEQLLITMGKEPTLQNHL

[7] = molecular target: T7, panel of 442 kinases (Homo sapiens, UniProt P00519, F317L); conditions: for remaining activity at 1 µM: read-out: % of control at 1 µM; for remaining activity at 10 µM: read-out: % of control at 10 µM
T7 construct: purchased Ambit Biosciences (scanMAXX KINOMEscan)
T7 sequence (P00519 whole entry F317L): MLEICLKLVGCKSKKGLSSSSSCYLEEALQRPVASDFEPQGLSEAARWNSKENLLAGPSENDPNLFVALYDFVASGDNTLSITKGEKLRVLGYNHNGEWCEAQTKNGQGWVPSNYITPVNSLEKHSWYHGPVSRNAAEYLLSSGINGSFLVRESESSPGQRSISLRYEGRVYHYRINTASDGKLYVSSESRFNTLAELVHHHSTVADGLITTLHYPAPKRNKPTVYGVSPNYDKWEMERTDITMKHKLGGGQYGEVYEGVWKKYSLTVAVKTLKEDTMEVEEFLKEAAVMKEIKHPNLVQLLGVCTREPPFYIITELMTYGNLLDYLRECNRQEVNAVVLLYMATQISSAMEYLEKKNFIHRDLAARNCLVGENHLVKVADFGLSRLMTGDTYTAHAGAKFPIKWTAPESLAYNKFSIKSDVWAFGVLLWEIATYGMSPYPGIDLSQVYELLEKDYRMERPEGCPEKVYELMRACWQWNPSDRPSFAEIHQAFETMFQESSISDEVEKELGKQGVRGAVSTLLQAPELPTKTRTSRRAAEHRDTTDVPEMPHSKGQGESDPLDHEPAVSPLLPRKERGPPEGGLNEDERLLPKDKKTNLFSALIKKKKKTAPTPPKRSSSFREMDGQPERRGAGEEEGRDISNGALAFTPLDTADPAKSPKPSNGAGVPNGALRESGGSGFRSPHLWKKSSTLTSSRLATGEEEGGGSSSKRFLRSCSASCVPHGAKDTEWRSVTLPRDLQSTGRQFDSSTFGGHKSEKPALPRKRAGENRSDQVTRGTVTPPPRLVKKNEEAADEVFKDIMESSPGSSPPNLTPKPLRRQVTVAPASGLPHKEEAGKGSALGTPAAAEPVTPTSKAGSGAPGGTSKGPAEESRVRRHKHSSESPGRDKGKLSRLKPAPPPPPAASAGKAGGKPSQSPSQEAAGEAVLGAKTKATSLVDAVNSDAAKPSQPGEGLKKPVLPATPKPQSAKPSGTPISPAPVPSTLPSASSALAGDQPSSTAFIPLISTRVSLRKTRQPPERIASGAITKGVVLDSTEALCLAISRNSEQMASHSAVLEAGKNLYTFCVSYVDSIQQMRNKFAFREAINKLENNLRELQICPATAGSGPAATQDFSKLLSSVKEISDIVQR

[8] = molecular target: T8, panel of 442 kinases (Homo sapiens, UniProt P36888, N841I); conditions: kinase FLT3(N841I); for remaining activity at 1 µM: read-out: % of control at 1 µM
T8 construct: purchased Ambit Biosciences (scanMAXX KINOMEscan)
T8 sequence (P36888 27-993 N841I): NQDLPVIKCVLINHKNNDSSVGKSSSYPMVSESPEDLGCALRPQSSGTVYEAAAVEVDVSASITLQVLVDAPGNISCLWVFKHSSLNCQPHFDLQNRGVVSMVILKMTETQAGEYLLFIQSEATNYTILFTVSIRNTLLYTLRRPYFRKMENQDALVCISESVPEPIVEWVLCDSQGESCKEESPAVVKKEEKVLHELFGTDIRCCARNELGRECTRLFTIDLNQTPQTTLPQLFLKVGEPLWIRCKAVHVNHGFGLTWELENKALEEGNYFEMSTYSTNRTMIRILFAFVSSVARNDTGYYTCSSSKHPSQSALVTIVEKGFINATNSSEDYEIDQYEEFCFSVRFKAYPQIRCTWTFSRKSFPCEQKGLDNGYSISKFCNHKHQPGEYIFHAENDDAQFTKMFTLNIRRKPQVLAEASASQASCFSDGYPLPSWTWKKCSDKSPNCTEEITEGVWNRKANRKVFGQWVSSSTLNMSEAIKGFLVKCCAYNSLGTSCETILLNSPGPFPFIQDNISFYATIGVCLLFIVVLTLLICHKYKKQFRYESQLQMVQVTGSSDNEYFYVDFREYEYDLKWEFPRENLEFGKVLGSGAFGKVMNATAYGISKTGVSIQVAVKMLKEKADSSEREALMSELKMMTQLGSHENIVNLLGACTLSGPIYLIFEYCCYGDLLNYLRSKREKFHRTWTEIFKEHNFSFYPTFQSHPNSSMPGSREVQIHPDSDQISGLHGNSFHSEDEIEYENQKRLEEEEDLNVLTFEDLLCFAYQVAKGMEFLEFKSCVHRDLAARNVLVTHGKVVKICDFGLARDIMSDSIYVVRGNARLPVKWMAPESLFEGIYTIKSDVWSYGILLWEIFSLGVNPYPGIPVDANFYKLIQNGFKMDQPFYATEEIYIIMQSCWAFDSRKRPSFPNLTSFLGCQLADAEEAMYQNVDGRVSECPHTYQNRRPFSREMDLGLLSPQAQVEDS

[9] = 10 µM, read-out: % of control at 10 µM

Nc1cc(C(F)(F)F)c(-c2cc(N3CCOCC3)nc(N3CCOCC3)n2)cn1 [Buparlisib]
remaining activity at 1 µM [1]: 100%
remaining activity at 10 µM ([1]; 10 µM, read-out: RIPK1 (% of control at 10 µM)): 100%
remaining activity at 1 µM [2]: 55%
remaining activity at 10 µM [2, 9]: 63%
remaining activity at 1 µM [3]: 92%
remaining activity at 10 µM [3, 9]: 100%
remaining activity at 1 µM [4]: 100%
remaining activity at 10 µM [4, 9]: 92%
remaining activity at 1 µM [5]: 100%
remaining activity at 10 µM [5, 9]: 100%
remaining activity at 1 µM [6]: 74%
remaining activity at 10 µM [6, 9]: 96%
remaining activity at 1 µM ([7]; ABL1(F317L)-nonphosphorylated): 100%
remaining activity at 10 µM ([7]; ABL1(F317L)-nonphosphorylated): 100%
remaining activity at 1 µM ([7]; ABL1(F317L)-phosphorylated): 100%
remaining activity at 10 µM ([7]; ABL1(F317L)-phosphorylated): 100%
remaining activity at 1 µM [8]: 86%
remaining activity at 10 µM [8, 9]: 97%

Cn1c(=O)n(-c2ccc(C(C)(C)C#N)cc2)c2c3cc(-c4cnc5ccccc5c4)ccc3ncc21 [Dactolisib, 2-methyl-2-[4-(3-methyl-2-oxo-8-quinolin-3-yl-2,3-dihydroimidazo[4,5-c]quinolin-1-yl)-phenyl] propionitrile]
remaining activity at 1 µM [1]: 91%
remaining activity at 1 µM [2]: 100%
remaining activity at 1 µM [3]: 57%
remaining activity at 1 µM [4]: 100%
remaining activity at 1 µM [5]: 49%
remaining activity at 1 µM [6]: 81%
remaining activity at 1 µM ([7]; ABL1(F317L)-nonphosphorylated): 100%
remaining activity at 1 µM ([7]; ABL1(F317L)-phosphorylated): 100%
remaining activity at 1 µM [8]: 24%

COc1ncc(-c2ccc3nccc(-c4ccnnc4)c3c2)cc1NS(=O)(=O)c1ccc(F)cc1F [Omipalisib]
remaining activity at 1 µM [1]: 78%
remaining activity at 1 µM [2]: 100%
remaining activity at 1 µM [3]: 100%
remaining activity at 1 µM [4]: 100%
remaining activity at 1 µM [5]: 83%
remaining activity at 1 µM [6]: 100%
remaining activity at 1 µM ([7]; ABL1(F317L)-nonphosphorylated): 87%
remaining activity at 1 µM ([7]; ABL1(F317L)-phosphorylated): 100%
remaining activity at 1 µM [8]: 70%

FC(F)c1nc2ccccc2n1-c1nc(N2CCOCC2)nc(N2CCOCC2)n1 [ZSTK474, 2-(difluoromethyl)-1-[4,6-di(4-morpholinyl)-1,3,5-triazin-2-yl]-1H-benzimidazole]
remaining activity at 1 µM [1]: 98%
remaining activity at 1 µM [2]: 100%
remaining activity at 1 µM [3]: 100%
remaining activity at 1 µM [4]: 95%
remaining activity at 1 µM [5]: 100%
remaining activity at 1 µM [6]: 82%
remaining activity at 1 µM ([7]; ABL1(F317L)-nonphosphorylated): 85%
remaining activity at 1 µM ([7]; ABL1(F317L)-phosphorylated): 100%
remaining activity at 1 µM [8]: 90%
